From US9132138B2, “Method for the treatment of multiple sclerosis” (CASI Pharmaceuticals, Inc., priority 2012, dated 2015)

Molecular target: T1, GPER1 (Mus musculus, UniProt Q8BMP4)
T1 construct: Purified C57/BL6 CD4^+ T cells were preincubated with the GPER1 antagonist G15; endogenous in cells; host or cells: purified primary CD4+ T cells from C57/BL6 mice
T1 sequence (Q8BMP4 1-375): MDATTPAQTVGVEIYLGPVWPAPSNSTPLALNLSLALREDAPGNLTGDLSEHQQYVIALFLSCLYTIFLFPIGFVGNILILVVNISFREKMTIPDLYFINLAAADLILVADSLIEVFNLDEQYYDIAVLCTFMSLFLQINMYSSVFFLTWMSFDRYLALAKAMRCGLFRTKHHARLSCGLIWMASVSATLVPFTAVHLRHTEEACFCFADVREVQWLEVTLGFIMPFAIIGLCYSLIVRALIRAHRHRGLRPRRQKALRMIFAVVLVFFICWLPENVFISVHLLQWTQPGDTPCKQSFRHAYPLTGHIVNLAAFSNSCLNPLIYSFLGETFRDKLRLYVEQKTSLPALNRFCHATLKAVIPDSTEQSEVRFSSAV
Assay: GPER1 dependence: CD25/CD69 on CD4+ T cells with G15 or G1
Assay type: cell-based, C57/BL6 mice
Details: for cell viability: at 6 hours
Procedure: FIGS. 6A and 6B show purified CD4^+ T cells that were pretreated with 2-50 μM 2ME2 and/or the GPER1 antagonist G15, and subsequently stimulated with anti-CD3/28 for 6 hours. Activation of CD4^+ T cells was assessed by CD25 and CD69 upregulation, measured by flow cytometry. US, unstimulated. Data is shown as mean±SD for triplicate determinations, and is representative of two separate experiments.
Purified C57/BL6 CD4^+ T cells were preincubated with the GPER1 antagonist G15 (100 nM, Tocris) and 2ME2 (0-50 μM), or the GPER1 agonist G1 (1-100 nM, Tocris) for 30 minutes, and activated with plate bound anti-CD3 plus soluble anti-CD28. 6 hours later, cells were harvested, stained with anti-CD4 and anti-CD25. CD25 expression was monitored on a HTS FACSCanto II (BD) and analyzed with FloJo (Treestar Inc).

[1] = G15 100 nM with 2ME2, anti-CD3/28, 6 hours

SMILES | CD25 expression on activated T cells (G1 1-100 nM, 6 hours) | CD69 expression on activated T cells (G1 1-100 nM, 6 hours) | cell viability | reversal of the inhibitory effect of 2ME2 on CD25 expression [1] | reversal of the inhibitory effect of 2ME2 on CD69 expression [1]
CC(=O)c1ccc2c(c1)C1C=CCC1C(c1cc3c(cc1Br)OCO3)N2 (stereo not drawn) [G1] | no effect | no effect | Neither 2ME2, G1 nor G15 affected cell viability |  | 
Brc1cc2c(cc1[C@@H]1Nc3ccccc3[C@@H]3C=CC[C@@H]31)OCO2 [G15] |  |  | Neither 2ME2, G1 nor G15 affected cell viability | failed to reverse | failed to reverse
